Test results from ChEMBL document CHEMBL3784992, “Identification of novel estrogen receptor (ER) agonists that have additional and complementary anti-cancer activities via ER-independent mechanism” (Bioorg Med Chem Lett, 2016).
The source made the active and inactive calls. The calls are words filed in the database; no cut-off is given here.

Columns and labels:
MCF7 [1] = experiment: Induction of apoptosis in ER-positive human MCF7 cells assessed as condensed nuclei at 10 uM after 24 hrs by DAPI staining based fluorescence microscopy; type: functional, cell-based
MCF7 [2] = experiment: Antiproliferative activity against ER-positive human MCF7 cells assessed as cell viability at 10 uM after 48 hrs by MTT assay; type: functional, cell-based
[3] = target: T1, Estrogen receptor (Homo sapiens) (UniProt P03372); experiment: Agonist activity at estrogen receptor alpha in human MCF7 cells assessed as ER alpha phosphorylation at 10 uM after 24 hrs by immunoblotting analysis; type: cell-based
T1 sequence (whole entry): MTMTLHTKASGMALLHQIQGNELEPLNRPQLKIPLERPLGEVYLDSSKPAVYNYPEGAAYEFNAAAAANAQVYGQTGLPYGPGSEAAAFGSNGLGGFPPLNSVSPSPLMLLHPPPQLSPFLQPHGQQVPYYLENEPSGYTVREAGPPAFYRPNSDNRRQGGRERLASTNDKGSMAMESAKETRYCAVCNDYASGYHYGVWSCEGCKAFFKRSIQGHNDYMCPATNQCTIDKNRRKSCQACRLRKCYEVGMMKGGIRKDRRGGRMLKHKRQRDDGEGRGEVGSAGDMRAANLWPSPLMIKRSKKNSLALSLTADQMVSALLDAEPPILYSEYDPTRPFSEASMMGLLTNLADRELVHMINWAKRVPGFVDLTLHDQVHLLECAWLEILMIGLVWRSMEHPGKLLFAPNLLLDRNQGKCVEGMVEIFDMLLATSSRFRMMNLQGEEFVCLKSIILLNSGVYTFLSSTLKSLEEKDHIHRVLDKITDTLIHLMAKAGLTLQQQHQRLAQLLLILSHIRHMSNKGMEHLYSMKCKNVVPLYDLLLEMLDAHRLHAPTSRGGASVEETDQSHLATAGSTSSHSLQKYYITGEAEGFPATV

MCF7 [4] = experiment: Induction of apoptosis in ER-positive human MCF7 cells assessed as membrane blebbing at 10 uM after 24 hrs by DAPI staining based fluorescence microscopy; type: functional, cell-based
[5] = target: T1, Estrogen receptor (Homo sapiens); experiment: Agonist activity at estrogen receptor in human MCF7 cells assessed as GREB1 mRNA level at 10 uM after 24 hrs by RT-qPCR method; type: cell-based
MCF7 [6] = experiment: Antiproliferative activity against ER-positive human MCF7 cells assessed as cell viability after 48 hrs by MTT assay; type: functional, cell-based
MCF7 [7] = experiment: Induction of apoptosis in ER-positive human MCF7 cells assessed as cell death at 10 uM after 48 hrs by annexin-V staining based flow cytometry; type: functional
Estrogen receptor = target: T2, Estrogen receptor (Homo sapiens, UniProt P03372); experiment: Agonist activity at estrogen receptor in human MCF7 cells assessed as ERE-mediated transcriptional activity after 24 hrs by luciferase assay; type: cell-based
T2 sequence (P03372 whole entry): T1 sequence (whole entry)

MDA-MB-231 = experiment: Antiproliferative activity against ER-negative human MDA-MB-231 cells assessed as cell viability after 48 hrs by MTT assay; type: functional, cell-based
MCF7 [8] = experiment: Effect on cell cycle in ER-positive human MCF7 cells assessed as accumulation at subG1 phase at 10 uM after 48 hrs by propidium iodide staining based flow cytometry; type: functional

| Activity [3] | Activity [5] | EC50 (Estrogen receptor) [µM] | SMILES | Activity (MCF7 [1]) | Activity (MCF7 [2]) | Activity (MCF7 [4]) | Activity (MCF7 [6]) | Activity (MCF7 [7]) | Activity (MDA-MB-231) | Activity (MCF7 [8]) |
| --- | --- | --- | --- | --- | --- | --- | --- | --- | --- | --- |
| Active | Active | 0.046 | C=CCCCON=C(c1ccc(O)cc1)c1ccc(O)cc1 | Active | Active | Active | Dose-dependent effect | Active | Dose-dependent effect | Active |
| Active | Active | 0.077 | CC(C)CCON=C(c1ccc(O)cc1)c1ccc(O)cc1 | Active | Active | Active | Dose-dependent effect | Active | Dose-dependent effect | Active |
| Active | Active | 0.075 | CCCCON=C(c1ccc(O)cc1)c1ccc(O)cc1 | Active | Active | Active | Dose-dependent effect | Active | Dose-dependent effect | Active |
